Data: article PMC8878717, “The Oxime Ethers with Heterocyclic, Alicyclic and Aromatic Moiety as Potential Anti-Cancer Agents” (Molecules, 2022)
Values joined by “and” are separate entries in the source; they are usually repeats but may differ in a detail not shown here. Equal values may be shown once. Read-outs that look alike come from different tables or passages of the source. Blank lines part the entries; values can stand above or below the compound they belong to.

Legend:
HeLa cells = experiment: MTT cytotoxicity test on HeLa cells; assay type: cell-based, human; conditions: for cytotoxicity / cell viability of HeLa cells at low concentration: 1–10 μg/mL (1 and 10 μg/mL)
Protocol: Cytotoxic properties of all compounds were determined by 3-(4,5-dimethylthiazol-2-yl)-2,5-diphenyltetrazolium bromide (MTT) test reflecting cell viability. Cytotoxicity screening of all 27 compounds—2-acetylbenzofuran oxime (6) and its oxime ethers (1–5), as well as: 2-acetylthiophene (7–17), cyclohexanone (18–20), acetophenone (21–23), thiazole (24–25), benzothiazole (26–27) oxime ethers—was performed in vitro on human cervical adenocarcinoma (HeLa) cells as the representatives of cancerous cells.
(§1) 2-Acetylbenzofuran, 2-acetylbenzothiophene, 2-acetylthiophene, 2-acetylthiazole, cyclohexanone and acetophenone derivatives were used for in vitro cytotoxicity assays with cervical adenocarcinoma (HeLa), human dermal fibroblasts (HDF), lung epithelial carcinoma (A549), and intestinal epithelial carcinoma (Caco-2) cell lines. A549, Caco-2, and HeLa cells were obtained from Sigma-Aldrich (Germany), and HDF from Biokom (Poland). All cell lines were cultured according to the manufacturer’s protocol under sterile conditions in the presence of 4.9% CO2 at 37 °C. A549 cells were grown in F-12 medium containing 10% fetal bovine serum (FBS) and 1% penicillin/streptomycin. HDF cells were grown in DMEM (low glucose, with 2 mM glutamine) medium containing 10% fetal bovine serum (FBS) and 1% penicillin/streptomycin. Caco-2 cells were grown in EMEM medium containing 10% fetal bovine serum (FBS), 1% non-essential amino acids (NEAA) and 1% penicillin/streptomycin. HeLa cells were grown in DMEM (low glucose, with 2 mM glutamine) medium containing 10% fetal bovine serum (FBS) and 1% gentamycin. After thawing, cells were cultured until they reached sub-confluent state. The cells were then detached using 0.25% trypsin solution and seeded into 24-well or 96-well plates (3 × 10^3 cells per well) for further experiments. After 24 h growth, the tested compounds were added to the cell cultures in concentrations of 1, 10, 50, 100 and 250 μg mL^−1, respectively, and incubated for the next 24 h or 72 h. The MTT test, based on the ability to reduce 3-(4,5-dimethylthiazol 2-yl)-2,5-diphenyltetrazolium bromide (MTT) by mitochondrial dehydrogenases, was performed in triplicate to assess cell metabolic activity and viability. The plates were then read spectrophotometrically at a wavelength of 570 nm. The dose-dependence curves were charted directly on x-/y-axes, with the drug dosages on the x-axis and the cell viability (percentage of viable cells) on the y-axis.

[1] = tested on: human dermal fibroblasts (HDF); experiment: MTT cytotoxicity test on HDF cells; assay type: cell-based; conditions: Homo sapiens, Fibroblast, HDF
Protocol: (§2) Therefore, compounds showing the highest cytotoxicity (8, 9, 18, 22, 24–27) were further tested on normal human dermal fibroblasts (HDF), A549, Caco-2, and HeLa cells to compare their activity after 24 h and 72 h culture (Figure 5 and Figure 6).
as §1

A549 cells = experiment: MTT cytotoxicity test on A549 cells; assay type: cell-based; conditions: Homo sapiens
Protocol: as §2, §1

Caco-2 cells = experiment: MTT cytotoxicity test on Caco-2 cells; assay type: cell-based, human; conditions: Homo sapiens
Protocol: as §2, §1

[2] = MTT cytotoxicity test on HDF cells; assay type: cell-based, human; conditions: human, human dermal fibroblasts (HDF); 100 μg/mL, 24 h exposure
Protocol: as §2, §1

[3] = Homo sapiens, HeLa, 24 h, HeLa, 24 h culture, MTT, read-out: EC50 for HeLa Cells
[4] = Homo sapiens, HeLa, 72 h, HeLa, 72 h, MTT, read-out: EC50 Value HeLa 72 h
[5] = 24 h, MTT, read-out: EC50 Value HDF 24 h
[6] = 72 h, MTT, read-out: EC50 Value HDF 72 h
[7] = A549, 24 h, MTT, read-out: EC50 Value A549 24 h
[8] = A549, 72 h, MTT, read-out: EC50 Value A549 72 h
[9] = Caco-2, 24 h, MTT, read-out: EC50 Value Caco-2 24 h
[10] = Caco-2, 72 h, MTT, read-out: EC50 Value Caco-2 72 h

SMILES: CC(=NOCc1ccc(Cl)cc1Cl)c1cc2ccccc2o1 [Compound 1]
EC50 (HeLa cells; [3]): > 250 µg/mL and > 750 µM

SMILES: CC(=NOCC(=O)O)c1cccs1 [Compound 17]
cytotoxicity / cell viability of HeLa cells at low concentration (HeLa cells; MTT): increased cell viability
EC50 (HeLa cells; [3]): > 250 µg/mL and > 1.25 mM

SMILES: CC(=NOCc1ccc([N+](=O)[O-])cc1)c1cc2ccccc2o1 [Compound 4]
EC50 (HeLa cells; [3]): > 250 µg/mL and > 810 µM

SMILES: C/C(=N\OCCCN)c1cccs1 [Compound 15, (E)-1-(thiophen-2-yl)ethanone O-3-aminopropyl oxime]
EC50 (HeLa cells; [3]): > 250 µg/mL and > 1.1 mM

SMILES: CCN(CC)CCO/N=C(\C)c1cccs1 [Compound 14, (E)-1-(thiophen-2-yl)ethanone O-2-(diethylamino)ethyl oxime]
EC50 (HeLa cells; [3]): > 250 µg/mL and > 1.04 mM

SMILES: CC(=NOCc1ccc(Cl)cc1Cl)c1cccs1 [Compound 7]
cytotoxicity / cell viability of HeLa cells at low concentration (HeLa cells; MTT): increased cell viability
EC50 (HeLa cells; [3]): > 250 µg/mL and > 830 µM

SMILES: C1CCC(=NOCCN2CCOCC2)CC1 [Compound 20]
EC50 (HeLa cells; [3]): > 250 µg/mL and > 1.1 mM

SMILES: CC(=NOCc1ccc([N+](=O)[O-])cc1)c1cccs1 [Compound 9]
EC50 (HeLa cells; [3]): 460 µM
EC50 (HeLa cells; [4]): 6.9 µg/mL and 20 µM
EC50 [1, 5]: 172 µg/mL and 620 µM
EC50 [1, 6]: 44.7 µg/mL and 160 µM
EC50 (A549 cells; [7]): 107 µg/mL and 390 µM
EC50 (A549 cells; [8]): 131 µg/mL and 470 µM
EC50 (Caco-2 cells; [9]): 78 µg/mL and 280 µM
EC50 (Caco-2 cells; [10]): 105 µg/mL and 380 µM

SMILES: CC(=NOCCN(C)C)c1ccccc1 [Compound 23]
EC50 (HeLa cells; [3]): 233 µg/mL and 1.13 mM

SMILES: CC(=NOCc1c(F)cccc1F)c1cc2ccccc2o1 [Compound 5]
EC50 (HeLa cells; [3]): > 250 µg/mL and > 830 µM

SMILES: O=C(O)CON=C1CCCCC1 [Compound 18, 2-(cyclohexylideneaminoxy)acetic acid]
viability of HeLa cells (of control) (HeLa cells; 100–250 μg/mL, MTT): below 20%
EC50 (HeLa cells; [3]): 32.3 µg/mL and 190 µM
EC50 (HeLa cells; [4]): 4.9 µg/mL and 30 µM
viability at 100 µg/mL (HeLa cells; Homo sapiens, HeLa, 100 μg/mL, 24 h exposure): ~20%
viability at 24 h, 100 μg/mL [2]: ~20%
EC50 [1, 5]: 43.7 µg/mL and 260 µM
EC50 [1, 6]: 14.7 µg/mL and 90 µM
EC50 ([1]; 72 h culture, read-out: EC50 HDF): 90 to 100 µM
EC50 (A549 cells; [7]): 47.8 µg/mL and 280 µM
EC50 (A549 cells; [8]): 17.9 µg/mL and 100 µM
EC50 (A549 cells; A549, 72 h, read-out: EC50 A549): 90 to 100 µM
viability at 100 µg/mL (A549 cells; A549, 100 μg/mL, 24 h exposure): ~20%
EC50 (Caco-2 cells; [9]): 44.4 µg/mL and 260 µM
EC50 (Caco-2 cells; [10]): 17.5 µg/mL and 100 µM
EC50 (Caco-2 cells; Caco-2, 72 h, read-out: EC50 Caco-2): 90 to 100 µM
viability at 100 µg/mL (Caco-2 cells; Caco-2, 100 μg/mL, 24 h exposure): ~20%

SMILES: CC(=NOCc1ccc(Br)cc1)c1cc2ccccc2o1 [Compound 3]
EC50 (HeLa cells; [3]): > 250 µg/mL and > 730 µM

melting point: 67 to 70 °C
SMILES: C/C(=N\OCc1ccc(Br)cc1)c1nccs1 [Compound 25, (E)-1-(thiazol-2-yl)ethanone O-4-bromobenzyl oxime]
EC50 (HeLa cells; [3]): 130 µg/mL and 420 µM
EC50 (HeLa cells; [4]): 47.3 µg/mL and 150 µM
EC50 [1, 5]: 37.9 µg/mL and 120 µM
EC50 [1, 6]: 25.7 µg/mL and 80 µM
EC50 (A549 cells; [7]): > 250 µg/mL and > 800 µM
EC50 (A549 cells; [8]): 79.9 µg/mL and 260 µM
EC50 (Caco-2 cells; [9]): 70.8 µg/mL and 230 µM
EC50 (Caco-2 cells; [10]): 50.5 µg/mL and 160 µM

SMILES: CC(=NOCc1ccc(C(F)(F)F)cc1)c1cc2ccccc2o1 [Compound 2]
EC50 (HeLa cells; [3]): > 250 µg/mL and > 750 µM

SMILES: COc1ccc(CO/N=C(\C)c2nccs2)cc1 [Compound 24, (E)-1-(thiazol-2-yl)ethanone O-4-methoxybenzyl oxime]
EC50 (HeLa cells; [3]): 110 µg/mL and 420 µM
EC50 (HeLa cells; [4]): 8.7 µg/mL and 30 µM
EC50 [1, 5]: 35.3 µg/mL and 130 µM
EC50 [1, 6]: 30.6 µg/mL and 120 µM
EC50 (A549 cells; [7]): > 250 µg/mL and > 950 µM
EC50 (A549 cells; [8]): 35.7 µg/mL and 140 µM
EC50 (Caco-2 cells; [9]): > 250 µg/mL and > 950 µM
EC50 (Caco-2 cells; [10]): 69.1 µg/mL and 260 µM

SMILES: CC(=NOCc1ccc(Br)cc1)c1cccs1 [Compound 8]
EC50 (HeLa cells; [3]): 610 µM
EC50 (HeLa cells; [4]): 40 µg/mL and 130 µM
EC50 [1, 5]: 127 µg/mL and 410 µM
EC50 [1, 6]: 118 µg/mL and 380 µM
EC50 (A549 cells; [7]): 194 µg/mL and 620 µM
EC50 (A549 cells; [8]): 228 µg/mL and 740 µM
EC50 (Caco-2 cells; [9]): 230 µg/mL and 740 µM
EC50 (Caco-2 cells; [10]): 118 µg/mL and 380 µM

SMILES: C/C(=N\OCCN)c1cccs1 [Compound 13, (E)-1-(thiophen-2-yl)ethanone O-2-aminoethyl oxime]
EC50 (HeLa cells; [3]): > 250 µg/mL and > 1.36 mM

melting point: 113 to 117 °C
SMILES: CC(=NOCc1ccc(Cl)cc1Cl)c1cc2ccccc2s1 [Compound 26, (E)-1-(benzothiophene-2-yl)ethanone O-2,4-dichlorobenzyl oxime]
EC50 (HeLa cells; [3]): 121 µg/mL and 350 µM
EC50 (HeLa cells; [4]): 8.18 µg/mL and 20 µM
EC50 [1, 5]: 135 µg/mL and 380 µM
EC50 [1, 6]: 25.7 µg/mL and 70 µM
EC50 (A549 cells; [7]): 199 µg/mL and 570 µM
EC50 (A549 cells; [8]): 177 µg/mL and 510 µM
EC50 (Caco-2 cells; [9]): > 250 µg/mL and > 710 µM
EC50 (Caco-2 cells; [10]): 50.1 µg/mL and 140 µM

SMILES: CC(=NOCCN1CCOCC1)c1cccs1 [Compound 12]
cytotoxicity / cell viability of HeLa cells at low concentration (HeLa cells; MTT): increased cell viability
EC50 (HeLa cells; [3]): > 250 µg/mL and > 980 µM

SMILES: CN(C)CCON=C1CCCCC1 [Compound 19]
EC50 (HeLa cells; [3]): > 250 µg/mL and > 1.36 mM

SMILES: CC(=NO)c1cc2ccccc2o1 [Compound 6, 2-acetylbenzofuran oxime]
EC50 (HeLa cells; [3]): > 250 µg/mL and > 1.43 mM

SMILES: CC(=NOCCN(C)C)c1cccs1 [Compound 11]
EC50 (HeLa cells; [3]): > 250 µg/mL and > 1.18 mM

SMILES: COc1ccc([N+](=O)[O-])c(CON=C(C)c2cccs2)c1 [Compound 10]
EC50 (HeLa cells; [3]): > 250 µg/mL and > 820 µM

SMILES: CC(=NOCCCN(C)C)c1cccs1 [Compound 16]
cytotoxicity / cell viability of HeLa cells at low concentration (HeLa cells; MTT): increased cell viability
EC50 (HeLa cells; [3]): > 250 µg/mL and > 1.1 mM
